# System: not listed separately
# Assay: DRUGMATRIX: Sodium/nucleoside co-transporter radioligand binding (ligand: nitrobenzylthioinosine)
# Format: cell membranes, Cavia porcellus, Dunkin-Hartley, Cerebral cortex, Membrane
# Details: Not Active = under 50% inhibition at 10 µM
Compound,IC50,Ki
Cc1noc(NS(=O)(=O)c2ccc(N)cc2)c1C [SULFISOXAZOLE],Not Active,Not Active
Cc1cccc(N(C)C(=S)Oc2ccc3ccccc3c2)c1 [TOLNAFTATE],Not Active,Not Active
CC[C@@H](CO)NC(=O)[C@@H]1C=C2c3cccc4[nH]cc(c34)C[C@H]2N(C)C1 [METHYLERGONOVINE],Not Active,Not Active
CC(C)(C)NC(=O)[C@@H]1C[C@@H]2CCCC[C@@H]2CN1C[C@@H](O)[C@H](Cc1ccccc1)NC(=O)[C@H](CC(N)=O)NC(=O)c1ccc2ccccc2n1,Not Active,Not Active
CC(=O)[C@@]1(O)CC[C@H]2[C@@H]3C[C@H](C)C4=CC(=O)CC[C@]4(C)[C@H]3CC[C@@]21C,Not Active,Not Active
Nc1nc2nc[nH]c2c(=S)[nH]1 [THIOGUANINE],Not Active,Not Active
COc1nc(C)nc(Cl)c1NC1=NCCN1 [MOXONIDINE],Not Active,Not Active
C[C@@H]1CN(c2c(F)c(N)c3c(=O)c(C(=O)O)cn(C4CC4)c3c2F)C[C@H](C)N1 [SPARFLOXACIN],Not Active,Not Active

# Same assay, conditions: Not Active = under 50% inhibition at 10 µM; read-out: IC50
row,Compound,IC50
1,Cc1oncc1C(=O)Nc1ccc(C(F)(F)F)cc1 [LEFLUNOMIDE],15.1 µM

# Same assay, conditions: Not Active = under 50% inhibition at 10 µM; read-out: Ki
row,Compound,Ki
1,Cc1oncc1C(=O)Nc1ccc(C(F)(F)F)cc1 [LEFLUNOMIDE],5.16 µM

# Molecular target: T1, Alpha-1B adrenergic receptor (Rattus norvegicus, UniProt P15823)
# T1 sequence (P15823 whole entry): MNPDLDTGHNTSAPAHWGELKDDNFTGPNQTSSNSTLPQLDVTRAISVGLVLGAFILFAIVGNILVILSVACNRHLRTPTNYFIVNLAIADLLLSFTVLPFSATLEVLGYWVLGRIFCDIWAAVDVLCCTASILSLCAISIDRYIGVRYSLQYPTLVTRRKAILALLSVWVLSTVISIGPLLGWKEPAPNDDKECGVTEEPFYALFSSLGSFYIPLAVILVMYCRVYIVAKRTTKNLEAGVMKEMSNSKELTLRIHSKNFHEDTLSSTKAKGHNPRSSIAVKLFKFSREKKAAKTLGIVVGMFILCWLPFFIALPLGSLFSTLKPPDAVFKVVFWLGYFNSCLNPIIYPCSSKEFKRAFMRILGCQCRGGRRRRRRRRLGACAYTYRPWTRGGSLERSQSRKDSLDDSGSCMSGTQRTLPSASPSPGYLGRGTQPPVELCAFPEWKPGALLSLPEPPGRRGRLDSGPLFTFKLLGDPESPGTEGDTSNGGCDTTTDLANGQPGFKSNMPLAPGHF
# Assay: DRUGMATRIX: Alpha-1B adrenergic receptor radioligand binding (ligand: prazosin)
# Format: cell membranes, Wistar, Liver, Membrane
# Details: Not Active = under 50% inhibition at 10 µM
row,Compound,IC50
1,Cc1noc(NS(=O)(=O)c2ccc(N)cc2)c1C [SULFISOXAZOLE],Not Active
2,Cc1cccc(N(C)C(=S)Oc2ccc3ccccc3c2)c1 [TOLNAFTATE],Not Active
3,Cc1oncc1C(=O)Nc1ccc(C(F)(F)F)cc1 [LEFLUNOMIDE],Not Active
4,CC[C@@H](CO)NC(=O)[C@@H]1C=C2c3cccc4[nH]cc(c34)C[C@H]2N(C)C1 [METHYLERGONOVINE],Not Active
5,CC(C)(C)NC(=O)[C@@H]1C[C@@H]2CCCC[C@@H]2CN1C[C@@H](O)[C@H](Cc1ccccc1)NC(=O)[C@H](CC(N)=O)NC(=O)c1ccc2ccccc2n1,Not Active
6,CC(=O)[C@@]1(O)CC[C@H]2[C@@H]3C[C@H](C)C4=CC(=O)CC[C@]4(C)[C@H]3CC[C@@]21C,Not Active
7,Nc1nc2nc[nH]c2c(=S)[nH]1 [THIOGUANINE],Not Active
8,COc1nc(C)nc(Cl)c1NC1=NCCN1 [MOXONIDINE],Not Active
9,C[C@@H]1CN(c2c(F)c(N)c3c(=O)c(C(=O)O)cn(C4CC4)c3c2F)C[C@H](C)N1 [SPARFLOXACIN],Not Active

# System: not listed separately
# Assay: DRUGMATRIX: ATPase, Na+/K+ enzyme inhibition (substrate: ATP)
# Format: tissue-based, Sus scrofa, Heart
# Details: Not Active = under 50% inhibition at 10 µM
Compound,IC50,Ki
Cc1noc(NS(=O)(=O)c2ccc(N)cc2)c1C [SULFISOXAZOLE],Not Active,Not Active
Cc1cccc(N(C)C(=S)Oc2ccc3ccccc3c2)c1 [TOLNAFTATE],Not Active,Not Active
Cc1oncc1C(=O)Nc1ccc(C(F)(F)F)cc1 [LEFLUNOMIDE],Not Active,Not Active
CC[C@@H](CO)NC(=O)[C@@H]1C=C2c3cccc4[nH]cc(c34)C[C@H]2N(C)C1 [METHYLERGONOVINE],Not Active,Not Active
CC(C)(C)NC(=O)[C@@H]1C[C@@H]2CCCC[C@@H]2CN1C[C@@H](O)[C@H](Cc1ccccc1)NC(=O)[C@H](CC(N)=O)NC(=O)c1ccc2ccccc2n1,Not Active,Not Active
CC(=O)[C@@]1(O)CC[C@H]2[C@@H]3C[C@H](C)C4=CC(=O)CC[C@]4(C)[C@H]3CC[C@@]21C,Not Active,Not Active
Nc1nc2nc[nH]c2c(=S)[nH]1 [THIOGUANINE],Not Active,Not Active
COc1nc(C)nc(Cl)c1NC1=NCCN1 [MOXONIDINE],Not Active,Not Active
C[C@@H]1CN(c2c(F)c(N)c3c(=O)c(C(=O)O)cn(C4CC4)c3c2F)C[C@H](C)N1 [SPARFLOXACIN],Not Active,Not Active

# Molecular target: Vascular endothelial growth factor receptor 1 (Homo sapiens, UniProt P17948); note: in other assays of this panel Not Active means under 50% inhibition at 10 µM
# Sequence (P17948 whole entry): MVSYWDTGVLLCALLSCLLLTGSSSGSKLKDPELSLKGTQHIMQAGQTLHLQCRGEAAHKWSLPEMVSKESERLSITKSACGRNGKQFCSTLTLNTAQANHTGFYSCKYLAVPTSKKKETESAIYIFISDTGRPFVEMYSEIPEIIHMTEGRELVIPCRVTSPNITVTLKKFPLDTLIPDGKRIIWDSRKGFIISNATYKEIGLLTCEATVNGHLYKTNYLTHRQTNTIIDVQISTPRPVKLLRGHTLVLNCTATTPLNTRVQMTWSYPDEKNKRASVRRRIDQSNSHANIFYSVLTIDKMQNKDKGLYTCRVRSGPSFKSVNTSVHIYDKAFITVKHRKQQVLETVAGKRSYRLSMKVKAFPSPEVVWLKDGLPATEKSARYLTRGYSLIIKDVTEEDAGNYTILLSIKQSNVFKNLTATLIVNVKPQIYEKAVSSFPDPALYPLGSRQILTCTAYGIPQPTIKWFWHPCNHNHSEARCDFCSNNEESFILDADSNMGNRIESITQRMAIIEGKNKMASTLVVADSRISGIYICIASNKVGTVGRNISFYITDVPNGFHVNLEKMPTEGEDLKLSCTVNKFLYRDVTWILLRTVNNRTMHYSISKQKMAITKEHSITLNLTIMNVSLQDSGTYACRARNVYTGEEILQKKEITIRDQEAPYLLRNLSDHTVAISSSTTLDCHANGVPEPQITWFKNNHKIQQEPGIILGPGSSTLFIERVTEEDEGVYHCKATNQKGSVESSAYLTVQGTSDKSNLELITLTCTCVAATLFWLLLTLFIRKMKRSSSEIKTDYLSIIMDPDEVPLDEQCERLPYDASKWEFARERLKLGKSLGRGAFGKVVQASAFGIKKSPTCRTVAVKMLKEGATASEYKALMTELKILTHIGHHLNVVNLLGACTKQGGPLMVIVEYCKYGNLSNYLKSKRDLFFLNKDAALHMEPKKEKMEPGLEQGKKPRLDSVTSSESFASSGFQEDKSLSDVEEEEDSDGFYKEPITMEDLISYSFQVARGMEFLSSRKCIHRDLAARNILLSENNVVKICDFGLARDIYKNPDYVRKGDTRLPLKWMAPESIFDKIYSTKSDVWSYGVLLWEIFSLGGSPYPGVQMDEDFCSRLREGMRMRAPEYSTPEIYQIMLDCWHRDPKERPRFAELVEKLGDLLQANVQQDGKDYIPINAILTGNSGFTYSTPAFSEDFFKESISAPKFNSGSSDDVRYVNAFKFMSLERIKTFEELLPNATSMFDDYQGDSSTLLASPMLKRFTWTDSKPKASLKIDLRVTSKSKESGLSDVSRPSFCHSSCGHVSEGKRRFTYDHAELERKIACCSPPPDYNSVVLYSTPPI
# Format: cell-based
# Details: huvec
row,Compound,IC50
1,Cc1noc(NS(=O)(=O)c2ccc(N)cc2)c1C [SULFISOXAZOLE],Not Active
2,Cc1cccc(N(C)C(=S)Oc2ccc3ccccc3c2)c1 [TOLNAFTATE],Not Active
3,Cc1oncc1C(=O)Nc1ccc(C(F)(F)F)cc1 [LEFLUNOMIDE],Not Active
4,CC[C@@H](CO)NC(=O)[C@@H]1C=C2c3cccc4[nH]cc(c34)C[C@H]2N(C)C1 [METHYLERGONOVINE],Not Active
5,CC(C)(C)NC(=O)[C@@H]1C[C@@H]2CCCC[C@@H]2CN1C[C@@H](O)[C@H](Cc1ccccc1)NC(=O)[C@H](CC(N)=O)NC(=O)c1ccc2ccccc2n1,Not Active
6,CC(=O)[C@@]1(O)CC[C@H]2[C@@H]3C[C@H](C)C4=CC(=O)CC[C@]4(C)[C@H]3CC[C@@]21C,Not Active
7,Nc1nc2nc[nH]c2c(=S)[nH]1 [THIOGUANINE],Not Active
8,COc1nc(C)nc(Cl)c1NC1=NCCN1 [MOXONIDINE],Not Active
9,C[C@@H]1CN(c2c(F)c(N)c3c(=O)c(C(=O)O)cn(C4CC4)c3c2F)C[C@H](C)N1 [SPARFLOXACIN],Not Active

# Molecular target: T2, D(4) dopamine receptor (Homo sapiens, UniProt P21917)
# T2 sequence (P21917 whole entry): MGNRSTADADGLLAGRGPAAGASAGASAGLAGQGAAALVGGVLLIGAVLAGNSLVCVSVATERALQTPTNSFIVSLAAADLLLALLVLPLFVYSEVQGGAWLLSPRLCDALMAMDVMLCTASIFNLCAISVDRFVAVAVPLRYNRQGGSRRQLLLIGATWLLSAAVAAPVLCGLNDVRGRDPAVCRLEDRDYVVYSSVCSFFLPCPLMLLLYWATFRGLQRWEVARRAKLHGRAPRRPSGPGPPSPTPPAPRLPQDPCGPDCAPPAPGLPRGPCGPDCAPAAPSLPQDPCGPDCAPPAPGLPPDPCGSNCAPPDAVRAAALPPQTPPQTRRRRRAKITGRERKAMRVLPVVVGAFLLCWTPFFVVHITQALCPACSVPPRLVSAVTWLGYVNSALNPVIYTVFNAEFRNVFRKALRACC
# Assay: DRUGMATRIX: Dopamine D4.2 radioligand binding (ligand: [3H] Spiperone)
# Format: cell membranes, CHO-K1, Membrane
# Details: cho-k1; Not Active = under 50% inhibition at 10 µM
row,Compound,IC50
1,Cc1noc(NS(=O)(=O)c2ccc(N)cc2)c1C [SULFISOXAZOLE],Not Active
2,Cc1cccc(N(C)C(=S)Oc2ccc3ccccc3c2)c1 [TOLNAFTATE],Not Active
3,Cc1oncc1C(=O)Nc1ccc(C(F)(F)F)cc1 [LEFLUNOMIDE],Not Active
4,CC[C@@H](CO)NC(=O)[C@@H]1C=C2c3cccc4[nH]cc(c34)C[C@H]2N(C)C1 [METHYLERGONOVINE],Not Active
5,CC(C)(C)NC(=O)[C@@H]1C[C@@H]2CCCC[C@@H]2CN1C[C@@H](O)[C@H](Cc1ccccc1)NC(=O)[C@H](CC(N)=O)NC(=O)c1ccc2ccccc2n1,Not Active
6,CC(=O)[C@@]1(O)CC[C@H]2[C@@H]3C[C@H](C)C4=CC(=O)CC[C@]4(C)[C@H]3CC[C@@]21C,Not Active
7,Nc1nc2nc[nH]c2c(=S)[nH]1 [THIOGUANINE],Not Active
8,COc1nc(C)nc(Cl)c1NC1=NCCN1 [MOXONIDINE],Not Active
9,C[C@@H]1CN(c2c(F)c(N)c3c(=O)c(C(=O)O)cn(C4CC4)c3c2F)C[C@H](C)N1 [SPARFLOXACIN],Not Active

# Molecular target: Melanocortin receptor 5 (Homo sapiens, UniProt P33032); note: in other assays of this panel Not Active means under 50% inhibition at 10 µM
# Sequence (P33032 whole entry): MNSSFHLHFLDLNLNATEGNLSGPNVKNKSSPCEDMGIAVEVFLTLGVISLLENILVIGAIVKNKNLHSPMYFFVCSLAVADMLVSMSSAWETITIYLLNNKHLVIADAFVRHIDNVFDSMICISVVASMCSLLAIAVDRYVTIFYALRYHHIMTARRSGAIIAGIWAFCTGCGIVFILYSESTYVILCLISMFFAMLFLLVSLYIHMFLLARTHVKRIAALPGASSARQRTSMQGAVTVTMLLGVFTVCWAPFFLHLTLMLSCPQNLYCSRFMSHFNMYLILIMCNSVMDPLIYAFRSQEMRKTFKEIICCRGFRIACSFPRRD
# Format: cell membranes, HEK293, Membrane
# Details: hek293
row,Compound,IC50
1,Cc1noc(NS(=O)(=O)c2ccc(N)cc2)c1C [SULFISOXAZOLE],Not Active
2,Cc1cccc(N(C)C(=S)Oc2ccc3ccccc3c2)c1 [TOLNAFTATE],Not Active
3,Cc1oncc1C(=O)Nc1ccc(C(F)(F)F)cc1 [LEFLUNOMIDE],Not Active
4,CC[C@@H](CO)NC(=O)[C@@H]1C=C2c3cccc4[nH]cc(c34)C[C@H]2N(C)C1 [METHYLERGONOVINE],Not Active
5,CC(C)(C)NC(=O)[C@@H]1C[C@@H]2CCCC[C@@H]2CN1C[C@@H](O)[C@H](Cc1ccccc1)NC(=O)[C@H](CC(N)=O)NC(=O)c1ccc2ccccc2n1,Not Active
6,CC(=O)[C@@]1(O)CC[C@H]2[C@@H]3C[C@H](C)C4=CC(=O)CC[C@]4(C)[C@H]3CC[C@@]21C,Not Active
7,Nc1nc2nc[nH]c2c(=S)[nH]1 [THIOGUANINE],Not Active
8,COc1nc(C)nc(Cl)c1NC1=NCCN1 [MOXONIDINE],Not Active
9,C[C@@H]1CN(c2c(F)c(N)c3c(=O)c(C(=O)O)cn(C4CC4)c3c2F)C[C@H](C)N1 [SPARFLOXACIN],Not Active

# Molecular target: Cytochrome P450 2C9 (Homo sapiens, UniProt P11712); note: in other assays of this panel Not Active means under 50% inhibition at 10 µM
# Sequence (P11712 whole entry): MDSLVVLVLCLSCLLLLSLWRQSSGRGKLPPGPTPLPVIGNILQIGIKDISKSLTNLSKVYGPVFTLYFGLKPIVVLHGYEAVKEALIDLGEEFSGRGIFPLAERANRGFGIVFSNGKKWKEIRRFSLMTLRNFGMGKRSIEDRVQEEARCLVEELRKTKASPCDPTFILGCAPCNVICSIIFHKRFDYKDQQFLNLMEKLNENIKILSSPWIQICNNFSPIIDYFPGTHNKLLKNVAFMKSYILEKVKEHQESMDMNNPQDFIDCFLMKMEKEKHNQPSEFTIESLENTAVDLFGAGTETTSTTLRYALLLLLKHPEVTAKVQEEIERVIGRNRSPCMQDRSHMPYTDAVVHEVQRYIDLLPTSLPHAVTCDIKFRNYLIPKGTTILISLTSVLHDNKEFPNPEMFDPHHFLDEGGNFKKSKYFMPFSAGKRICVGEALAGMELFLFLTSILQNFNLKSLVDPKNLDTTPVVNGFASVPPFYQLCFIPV
# Details: bti-tn-5b1-4
Compound,IC50,Ki
Cc1noc(NS(=O)(=O)c2ccc(N)cc2)c1C [SULFISOXAZOLE],Not Active,Not Active
Cc1cccc(N(C)C(=S)Oc2ccc3ccccc3c2)c1 [TOLNAFTATE],Not Active,Not Active
Cc1oncc1C(=O)Nc1ccc(C(F)(F)F)cc1 [LEFLUNOMIDE],Not Active,Not Active
CC[C@@H](CO)NC(=O)[C@@H]1C=C2c3cccc4[nH]cc(c34)C[C@H]2N(C)C1 [METHYLERGONOVINE],Not Active,Not Active
CC(C)(C)NC(=O)[C@@H]1C[C@@H]2CCCC[C@@H]2CN1C[C@@H](O)[C@H](Cc1ccccc1)NC(=O)[C@H](CC(N)=O)NC(=O)c1ccc2ccccc2n1,Not Active,Not Active
CC(=O)[C@@]1(O)CC[C@H]2[C@@H]3C[C@H](C)C4=CC(=O)CC[C@]4(C)[C@H]3CC[C@@]21C,Not Active,Not Active
Nc1nc2nc[nH]c2c(=S)[nH]1 [THIOGUANINE],Not Active,Not Active
COc1nc(C)nc(Cl)c1NC1=NCCN1 [MOXONIDINE],Not Active,Not Active
C[C@@H]1CN(c2c(F)c(N)c3c(=O)c(C(=O)O)cn(C4CC4)c3c2F)C[C@H](C)N1 [SPARFLOXACIN],Not Active,Not Active

# — ChEMBL document CHEMBL1909046, “DrugMatrix in vitro pharmacology data”
